Columns and labels:
ClMlp2 [1] = system: T1, ClMlp2; experiment: UV-visible spectroscopy, loss of methylcob(III)alamin absorbance at […] nm, steady-state kinetics; format: biochemical, Clostridium ljungdahlii; conditions: co-substrate methylcob(III)alamin (non-physiological methyl donor); strictly anoxic nitrogen atmosphere; reverse of the hypothesized physiological reaction; fit with substrate inhibition; read-out: apparent KM
T1 construct: gene mlp2; recombinant ClMlp2

ClMlp2 [2] = biological target: T1, ClMlp2; experiment: as above; format: biochemical, Clostridium ljungdahlii; conditions: co-substrate methylcob(III)alamin (non-physiological methyl donor); strictly anoxic nitrogen atmosphere; reverse of the hypothesized physiological reaction; fit with substrate inhibition; substrate in

[SeH2] [selenide]
Km (ClMlp2 [1]): 79.8 µM | KI (selenide substrate inhibition constant) (ClMlp2 [2]): 3.83 mM

— paper doi:10.1101/2023.07.31.551370, “A diversified, widespread microbial gene cluster encodes homologs of methyltransferases involved in methanogenesis” (bioRxiv, 2023)
